This note sets out measurements from ChEMBL document CHEMBL5291721, “A preclinical secondary pharmacology resource illuminates target-adverse drug reaction associations of marketed drugs” (Nat Commun, 2023).

For assay [1], the target named is Sodium-dependent dopamine transporter (Homo sapiens, UniProt Q01959).
Another assay concerns the target Acetylcholinesterase (Homo sapiens, UniProt P22303). The format is functional.
The target in assay [2] is T1, Prostaglandin G/H synthase 1 (Homo sapiens, UniProt P23219). The format is functional.
The target in assay [3] is T2, Thromboxane A2 receptor (Homo sapiens, UniProt P21731).
T2 sequence (P21731 whole entry): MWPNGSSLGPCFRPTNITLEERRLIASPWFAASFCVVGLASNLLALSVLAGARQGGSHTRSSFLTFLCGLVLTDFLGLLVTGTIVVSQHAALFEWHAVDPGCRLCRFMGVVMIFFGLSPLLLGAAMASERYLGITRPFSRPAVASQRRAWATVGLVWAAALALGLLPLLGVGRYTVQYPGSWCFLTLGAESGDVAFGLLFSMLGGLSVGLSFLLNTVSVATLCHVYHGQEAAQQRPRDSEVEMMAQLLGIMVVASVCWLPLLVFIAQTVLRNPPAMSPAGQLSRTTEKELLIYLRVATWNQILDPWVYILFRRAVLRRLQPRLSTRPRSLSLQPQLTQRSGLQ
The format is functional, cell-based.

For another assay, the target named is D(1A) dopamine receptor (Homo sapiens, UniProt P21728).
In assay [4] the target is T1, Prostaglandin G/H synthase 1. The format is functional. The source holds these as a separate data set.
Assay [5] has as its target cGMP-inhibited 3',5'-cyclic phosphodiesterase 3A (Homo sapiens, UniProt Q14432). The format is functional.
Assay [6] addresses T2, Thromboxane A2 receptor. The format is functional, cell-based. The source holds these as a separate data set.
Assay [7] addresses T3, Amine oxidase [flavin-containing] A (Homo sapiens, UniProt P21397).
T3 sequence (P21397 whole entry): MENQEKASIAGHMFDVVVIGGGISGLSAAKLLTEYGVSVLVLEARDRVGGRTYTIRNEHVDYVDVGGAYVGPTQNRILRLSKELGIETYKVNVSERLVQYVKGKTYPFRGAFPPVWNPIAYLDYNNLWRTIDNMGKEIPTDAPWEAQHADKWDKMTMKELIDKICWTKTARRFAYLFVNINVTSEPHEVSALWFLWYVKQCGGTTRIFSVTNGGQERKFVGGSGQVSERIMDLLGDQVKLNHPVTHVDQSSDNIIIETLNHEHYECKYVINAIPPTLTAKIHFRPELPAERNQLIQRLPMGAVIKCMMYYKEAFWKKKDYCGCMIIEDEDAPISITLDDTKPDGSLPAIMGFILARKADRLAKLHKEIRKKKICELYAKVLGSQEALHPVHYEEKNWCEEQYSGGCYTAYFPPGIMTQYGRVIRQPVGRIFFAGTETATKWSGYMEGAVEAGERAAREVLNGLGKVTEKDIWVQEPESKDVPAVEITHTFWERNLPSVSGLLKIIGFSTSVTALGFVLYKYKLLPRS
The format is functional.

Assay [8] has as its target Sodium-dependent noradrenaline transporter (Homo sapiens, UniProt P23975).
A further assay concerns the target T4, Progesterone receptor (Homo sapiens, UniProt P06401).
T4 sequence (P06401 whole entry): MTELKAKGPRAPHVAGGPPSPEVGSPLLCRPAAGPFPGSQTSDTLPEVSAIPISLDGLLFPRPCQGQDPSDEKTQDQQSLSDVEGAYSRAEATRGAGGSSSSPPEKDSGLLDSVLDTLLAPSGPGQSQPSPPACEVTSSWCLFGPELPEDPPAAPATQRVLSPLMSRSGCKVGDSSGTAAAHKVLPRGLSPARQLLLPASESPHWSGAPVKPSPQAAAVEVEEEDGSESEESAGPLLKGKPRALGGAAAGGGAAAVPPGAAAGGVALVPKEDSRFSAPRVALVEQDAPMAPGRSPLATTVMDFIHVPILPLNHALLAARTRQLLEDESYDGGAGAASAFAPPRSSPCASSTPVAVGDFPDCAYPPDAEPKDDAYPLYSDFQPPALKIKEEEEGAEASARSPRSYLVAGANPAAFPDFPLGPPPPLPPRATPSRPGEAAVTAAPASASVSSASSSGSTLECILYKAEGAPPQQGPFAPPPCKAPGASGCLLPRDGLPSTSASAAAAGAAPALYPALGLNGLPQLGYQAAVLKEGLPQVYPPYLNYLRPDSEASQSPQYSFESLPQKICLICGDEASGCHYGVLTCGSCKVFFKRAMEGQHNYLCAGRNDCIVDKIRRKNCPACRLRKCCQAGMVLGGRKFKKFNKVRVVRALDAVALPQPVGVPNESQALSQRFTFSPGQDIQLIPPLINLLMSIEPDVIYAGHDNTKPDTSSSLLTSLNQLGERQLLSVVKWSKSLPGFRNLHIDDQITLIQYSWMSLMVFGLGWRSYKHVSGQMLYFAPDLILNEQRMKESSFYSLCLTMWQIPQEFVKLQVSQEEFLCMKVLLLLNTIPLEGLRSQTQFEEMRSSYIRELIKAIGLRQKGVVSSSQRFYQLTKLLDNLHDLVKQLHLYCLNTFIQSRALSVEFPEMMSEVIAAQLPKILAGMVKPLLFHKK

Another assay has as its target Prothrombin (Homo sapiens, UniProt P00734). The format is functional.
In assay [9] the target is 5-hydroxytryptamine receptor 2B (Homo sapiens, UniProt P41595). The format is functional, cell-based.
The target of assay [10] is Vascular endothelial growth factor receptor 2 (Homo sapiens, UniProt P35968). The format is functional.
The target of assay [11] is T5, 5-hydroxytryptamine receptor 1A (Homo sapiens, UniProt P08908).
T5 sequence (P08908 whole entry): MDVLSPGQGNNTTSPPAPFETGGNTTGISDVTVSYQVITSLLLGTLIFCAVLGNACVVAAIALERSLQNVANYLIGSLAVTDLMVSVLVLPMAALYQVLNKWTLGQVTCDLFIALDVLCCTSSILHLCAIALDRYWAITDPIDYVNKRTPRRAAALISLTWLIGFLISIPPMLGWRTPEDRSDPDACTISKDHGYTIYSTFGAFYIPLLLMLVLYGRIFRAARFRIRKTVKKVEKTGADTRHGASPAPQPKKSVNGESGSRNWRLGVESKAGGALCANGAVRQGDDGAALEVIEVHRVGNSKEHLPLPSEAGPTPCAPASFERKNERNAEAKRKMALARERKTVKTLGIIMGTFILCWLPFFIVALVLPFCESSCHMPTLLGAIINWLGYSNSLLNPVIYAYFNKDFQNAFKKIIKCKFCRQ

Structures are written as SMILES.
Note: assay procedure not described here.

Sequence of Sodium-dependent dopamine transporter (Q01959 whole entry): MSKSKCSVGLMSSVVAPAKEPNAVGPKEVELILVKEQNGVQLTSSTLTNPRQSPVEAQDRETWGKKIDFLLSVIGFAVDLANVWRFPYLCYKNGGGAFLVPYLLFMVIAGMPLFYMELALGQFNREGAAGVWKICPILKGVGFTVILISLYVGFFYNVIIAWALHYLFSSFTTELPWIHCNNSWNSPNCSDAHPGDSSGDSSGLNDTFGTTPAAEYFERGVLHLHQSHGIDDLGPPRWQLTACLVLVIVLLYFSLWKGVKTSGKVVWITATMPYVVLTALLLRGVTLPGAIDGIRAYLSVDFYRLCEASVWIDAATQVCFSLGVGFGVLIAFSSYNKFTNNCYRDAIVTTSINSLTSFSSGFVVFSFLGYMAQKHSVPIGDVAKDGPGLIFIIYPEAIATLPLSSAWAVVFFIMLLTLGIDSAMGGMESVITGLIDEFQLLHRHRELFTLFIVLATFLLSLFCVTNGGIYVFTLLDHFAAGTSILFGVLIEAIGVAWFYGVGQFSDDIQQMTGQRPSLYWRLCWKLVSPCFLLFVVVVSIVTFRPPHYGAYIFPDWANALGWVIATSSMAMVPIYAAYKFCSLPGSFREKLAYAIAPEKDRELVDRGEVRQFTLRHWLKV
Sequence of Sodium-dependent noradrenaline transporter (P23975 whole entry): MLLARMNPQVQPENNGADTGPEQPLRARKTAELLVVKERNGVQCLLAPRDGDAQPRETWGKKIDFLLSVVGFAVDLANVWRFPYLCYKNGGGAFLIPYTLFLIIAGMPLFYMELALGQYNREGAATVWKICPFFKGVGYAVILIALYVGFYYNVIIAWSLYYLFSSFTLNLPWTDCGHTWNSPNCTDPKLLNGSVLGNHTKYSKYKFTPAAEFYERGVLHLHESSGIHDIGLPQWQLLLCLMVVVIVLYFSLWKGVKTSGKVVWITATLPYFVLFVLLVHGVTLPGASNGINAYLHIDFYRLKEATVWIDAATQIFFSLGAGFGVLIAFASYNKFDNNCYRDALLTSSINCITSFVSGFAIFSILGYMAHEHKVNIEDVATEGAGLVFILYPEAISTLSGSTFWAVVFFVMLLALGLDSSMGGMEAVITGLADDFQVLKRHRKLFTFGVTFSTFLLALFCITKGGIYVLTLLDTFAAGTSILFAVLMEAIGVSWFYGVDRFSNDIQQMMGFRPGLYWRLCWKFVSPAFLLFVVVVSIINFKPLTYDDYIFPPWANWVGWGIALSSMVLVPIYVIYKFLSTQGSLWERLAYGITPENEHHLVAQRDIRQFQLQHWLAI
Sequence of cGMP-inhibited 3',5'-cyclic phosphodiesterase 3A (Q14432 whole entry): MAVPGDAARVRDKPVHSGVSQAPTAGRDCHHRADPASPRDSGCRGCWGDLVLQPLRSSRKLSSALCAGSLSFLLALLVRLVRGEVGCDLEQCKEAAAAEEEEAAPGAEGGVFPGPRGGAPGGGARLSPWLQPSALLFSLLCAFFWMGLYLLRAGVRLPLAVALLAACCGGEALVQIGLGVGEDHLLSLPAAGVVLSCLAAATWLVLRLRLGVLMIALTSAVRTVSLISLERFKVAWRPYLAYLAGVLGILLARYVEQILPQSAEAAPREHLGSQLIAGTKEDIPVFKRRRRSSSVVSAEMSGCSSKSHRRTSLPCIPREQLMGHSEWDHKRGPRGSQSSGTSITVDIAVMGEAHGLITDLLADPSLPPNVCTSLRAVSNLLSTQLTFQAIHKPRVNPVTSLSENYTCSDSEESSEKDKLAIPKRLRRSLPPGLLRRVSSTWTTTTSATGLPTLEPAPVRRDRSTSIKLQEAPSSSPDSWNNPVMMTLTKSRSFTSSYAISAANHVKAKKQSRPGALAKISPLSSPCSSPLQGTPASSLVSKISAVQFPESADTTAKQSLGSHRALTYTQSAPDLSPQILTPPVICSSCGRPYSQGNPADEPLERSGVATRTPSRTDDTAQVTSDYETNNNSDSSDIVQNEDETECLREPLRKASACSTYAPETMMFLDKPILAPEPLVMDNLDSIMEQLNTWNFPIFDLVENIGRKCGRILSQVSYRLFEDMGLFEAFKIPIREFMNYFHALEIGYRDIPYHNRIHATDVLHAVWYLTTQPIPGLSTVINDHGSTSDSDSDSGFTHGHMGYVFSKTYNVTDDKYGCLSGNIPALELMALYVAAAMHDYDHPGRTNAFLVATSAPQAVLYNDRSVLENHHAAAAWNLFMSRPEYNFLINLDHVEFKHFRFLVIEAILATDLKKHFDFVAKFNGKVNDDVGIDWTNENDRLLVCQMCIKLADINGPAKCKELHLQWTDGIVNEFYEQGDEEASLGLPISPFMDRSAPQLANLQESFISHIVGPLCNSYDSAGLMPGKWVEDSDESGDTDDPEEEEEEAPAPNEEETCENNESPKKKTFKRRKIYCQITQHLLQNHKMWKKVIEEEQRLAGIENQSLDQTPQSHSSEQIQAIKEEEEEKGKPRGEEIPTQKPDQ
Sequence of 5-hydroxytryptamine receptor 2B (P41595 whole entry): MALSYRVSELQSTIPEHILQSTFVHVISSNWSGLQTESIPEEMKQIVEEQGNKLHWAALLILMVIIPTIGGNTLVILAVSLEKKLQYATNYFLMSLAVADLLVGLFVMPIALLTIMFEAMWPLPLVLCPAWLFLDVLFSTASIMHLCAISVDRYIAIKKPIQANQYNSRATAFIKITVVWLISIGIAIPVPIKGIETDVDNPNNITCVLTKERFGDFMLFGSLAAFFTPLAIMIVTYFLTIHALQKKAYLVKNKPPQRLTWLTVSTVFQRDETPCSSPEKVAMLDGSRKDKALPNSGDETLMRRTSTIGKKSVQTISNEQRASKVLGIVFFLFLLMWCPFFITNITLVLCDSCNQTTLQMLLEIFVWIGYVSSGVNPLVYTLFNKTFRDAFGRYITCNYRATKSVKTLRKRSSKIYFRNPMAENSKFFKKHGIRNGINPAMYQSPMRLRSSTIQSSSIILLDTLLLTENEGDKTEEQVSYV
Sequence of Vascular endothelial growth factor receptor 2 (P35968 whole entry): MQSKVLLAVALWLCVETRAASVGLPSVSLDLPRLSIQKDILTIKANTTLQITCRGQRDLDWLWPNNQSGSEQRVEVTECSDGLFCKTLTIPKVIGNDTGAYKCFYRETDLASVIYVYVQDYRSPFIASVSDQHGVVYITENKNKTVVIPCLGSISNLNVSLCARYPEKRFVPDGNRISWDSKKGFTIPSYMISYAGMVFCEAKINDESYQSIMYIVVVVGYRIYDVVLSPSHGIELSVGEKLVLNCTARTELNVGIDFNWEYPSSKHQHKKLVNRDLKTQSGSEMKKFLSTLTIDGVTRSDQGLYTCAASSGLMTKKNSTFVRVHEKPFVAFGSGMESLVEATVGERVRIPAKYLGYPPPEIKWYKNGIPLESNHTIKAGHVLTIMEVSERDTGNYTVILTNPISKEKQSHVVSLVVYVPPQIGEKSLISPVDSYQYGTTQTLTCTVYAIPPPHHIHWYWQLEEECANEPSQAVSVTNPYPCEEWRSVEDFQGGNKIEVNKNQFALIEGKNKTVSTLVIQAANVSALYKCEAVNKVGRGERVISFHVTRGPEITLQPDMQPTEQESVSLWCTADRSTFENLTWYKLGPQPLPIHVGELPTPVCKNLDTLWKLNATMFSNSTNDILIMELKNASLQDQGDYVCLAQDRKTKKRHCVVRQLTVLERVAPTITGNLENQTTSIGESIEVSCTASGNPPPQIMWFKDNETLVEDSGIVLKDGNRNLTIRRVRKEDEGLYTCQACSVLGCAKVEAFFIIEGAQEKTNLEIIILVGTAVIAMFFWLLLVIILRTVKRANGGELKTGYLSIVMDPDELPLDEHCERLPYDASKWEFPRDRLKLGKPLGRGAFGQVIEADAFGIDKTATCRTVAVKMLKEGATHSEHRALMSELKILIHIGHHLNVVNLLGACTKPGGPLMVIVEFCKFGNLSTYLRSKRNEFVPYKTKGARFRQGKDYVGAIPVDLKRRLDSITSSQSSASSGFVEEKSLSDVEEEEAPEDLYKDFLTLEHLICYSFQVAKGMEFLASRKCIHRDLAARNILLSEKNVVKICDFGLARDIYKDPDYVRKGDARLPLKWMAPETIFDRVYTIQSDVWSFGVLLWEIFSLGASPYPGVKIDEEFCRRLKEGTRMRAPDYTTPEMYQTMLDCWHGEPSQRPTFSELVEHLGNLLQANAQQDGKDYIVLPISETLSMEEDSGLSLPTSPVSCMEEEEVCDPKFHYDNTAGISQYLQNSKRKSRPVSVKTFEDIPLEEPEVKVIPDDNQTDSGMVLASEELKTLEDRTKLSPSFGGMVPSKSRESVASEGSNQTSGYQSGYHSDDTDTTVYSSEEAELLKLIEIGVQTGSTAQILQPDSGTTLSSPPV
T1 sequence (P23219 whole entry): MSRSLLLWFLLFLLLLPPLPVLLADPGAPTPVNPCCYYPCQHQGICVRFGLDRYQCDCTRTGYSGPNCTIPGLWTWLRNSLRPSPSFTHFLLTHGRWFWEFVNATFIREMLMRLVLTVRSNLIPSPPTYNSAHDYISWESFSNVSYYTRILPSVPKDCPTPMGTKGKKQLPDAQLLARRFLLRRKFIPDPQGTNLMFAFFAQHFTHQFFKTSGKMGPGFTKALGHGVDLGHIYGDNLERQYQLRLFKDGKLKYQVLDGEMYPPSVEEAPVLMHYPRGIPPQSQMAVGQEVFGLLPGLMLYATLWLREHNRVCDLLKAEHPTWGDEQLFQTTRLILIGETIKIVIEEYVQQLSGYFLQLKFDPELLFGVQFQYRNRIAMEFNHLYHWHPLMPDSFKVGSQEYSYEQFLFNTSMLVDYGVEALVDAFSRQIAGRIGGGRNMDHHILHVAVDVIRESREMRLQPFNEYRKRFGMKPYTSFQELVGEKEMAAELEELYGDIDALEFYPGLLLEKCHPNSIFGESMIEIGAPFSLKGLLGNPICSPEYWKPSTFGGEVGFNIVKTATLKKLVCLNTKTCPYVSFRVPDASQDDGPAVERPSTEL

Take `CCOc1ccc(Cc2nccc3cc(OCC)c(OCC)cc23)cc1OCC` [ETHAVERINE]: the AC50 is more than 30 µM in assay [1]; more than 30 µM on Acetylcholinesterase; more than 10 µM in assay [2]; more than 30 µM at Thromboxane A2 receptor [3]; 8.59 µM at D(1A) dopamine receptor; more than 30 µM in assay [4]. For the same compound, the AC50 was 3.69 µM in [5]; 14.1 µM at Thromboxane A2 receptor [6]; more than 30 µM in [7]; more than 30 µM in assay [8]; more than 30 µM at Progesterone receptor; more than 30 µM at Prothrombin. Further, the AC50 in assay [9], in [10] and in assay [11] was more than 30 µM in each case.
With `CC(C)(Oc1ccc(C(=O)c2ccc(Cl)cc2)cc1)C(=O)O` [FENOFIBRIC ACID], the AC50 (in assay [1]; on Acetylcholinesterase; in [2]; on Thromboxane A2 receptor [3]; at D(1A) dopamine receptor; in assay [4]) was more than 30 µM in each case. Besides, the concentration at half-maximal activity (AC50) (in assay [5]; on Thromboxane A2 receptor [6]; in assay [7]; in [8]; on Progesterone receptor; on Prothrombin) was more than 30 µM throughout. For the same compound, the AC50 in [9], in [10] and in assay [11] was more than 30 µM each time.
Turning to `COC(=O)Nc1nc2cc(C(=O)c3ccc(F)cc3)ccc2[nH]1` [FLUBENDAZOLE], the AC50 in assay [1] was more than 30 µM; at Acetylcholinesterase it was more than 30 µM; in assay [2], more than 30 µM; on Thromboxane A2 receptor [3], more than 30 µM; at D(1A) dopamine receptor, more than 30 µM; in assay [4] it was 2.17 µM. The AC50 was more than 30 µM in assay [5]; more than 30 µM at Thromboxane A2 receptor [6]; more than 30 µM in assay [7]; more than 10 µM in assay [8]; more than 30 µM at Progesterone receptor; more than 30 µM on Prothrombin. In addition, the AC50 was more than 30 µM in assay [9], 0.386 µM in assay [10] and more than 30 µM in [11].
Turning to `CC(C)Cc1ccc(C(C)C(=O)OCc2ccccn2)cc1` (stereo not given) [IBUPROFEN PICONOL], the AC50 in [1] is more than 30 µM; on Acetylcholinesterase it was more than 30 µM; in assay [2], 10.8 µM; at Thromboxane A2 receptor [3], more than 30 µM; at D(1A) dopamine receptor, more than 30 µM; in assay [4], more than 30 µM. Also, the AC50 is more than 30 µM in [5]; more than 30 µM at Thromboxane A2 receptor [6]; more than 30 µM in [7]; 22.1 µM in assay [8]; 19.1 µM at Progesterone receptor; more than 30 µM at Prothrombin. Also, the AC50 in assay [9], in [10] and in assay [11] was more than 30 µM each time.
As to `CC(C)NC[C@H](O)COc1ccc(CCOCC2CC2)cc1` [LEVOBETAXOLOL], the concentration at half-maximal activity (AC50) (in [1]; at Acetylcholinesterase; in [2]; at Thromboxane A2 receptor [3]; at D(1A) dopamine receptor; in [4]) was more than 30 µM throughout. Besides, the AC50 (in assay [5]; on Thromboxane A2 receptor [6]; in assay [7]; in assay [8]; on Progesterone receptor; on Prothrombin) was more than 30 µM throughout. In addition, the AC50 in [9], in [10] and in assay [11] was more than 30 µM each time.
On to `Cc1cccc(C)c1NC(=O)CN(CC(=O)O)CC(=O)O` [LIDOFENIN], for which the AC50 (in [1]; at Acetylcholinesterase; in assay [2]; on Thromboxane A2 receptor [3]; at D(1A) dopamine receptor; in assay [4]) was more than 30 µM each time. For the same compound, the AC50 (in assay [5]; on Thromboxane A2 receptor [6]; in assay [7]; in assay [8]; at Progesterone receptor; at Prothrombin) was more than 30 µM each time. Moreover, the AC50 in [9], in [10] and in assay [11] was more than 30 µM throughout.
Take `CN1CCc2c(c3ccccc3n2Cc2ccccc2)C1` [MEBHYDROLIN]: the AC50 in assay [1] is 0.334 µM; on Acetylcholinesterase, more than 30 µM; in assay [2] it was more than 30 µM; at Thromboxane A2 receptor [3] it was more than 30 µM; on D(1A) dopamine receptor, 1.98 µM; in assay [4], more than 30 µM. In addition, the AC50 was more than 30 µM in [5]; more than 30 µM at Thromboxane A2 receptor [6]; more than 30 µM in assay [7]; 8.13 µM in assay [8]; more than 30 µM at Progesterone receptor; more than 30 µM at Prothrombin. In addition, the AC50 was more than 30 µM in [9], more than 30 µM in assay [10] and 1.04 µM in [11].
For `Cc1ccc(Cl)c(Nc2ccccc2C(=O)O)c1Cl` [MECLOFENAMIC ACID], the AC50 in assay [1] was more than 30 µM; at Acetylcholinesterase it was more than 30 µM; in assay [2], 0.0171 µM; at Thromboxane A2 receptor [3], more than 30 µM; at D(1A) dopamine receptor, more than 30 µM; in [4], 0.0142 µM. Besides, the AC50 in [5] was more than 30 µM; at Thromboxane A2 receptor [6], 20 µM; in assay [7] it was more than 30 µM; in assay [8], more than 30 µM; on Progesterone receptor it was more than 30 µM; on Prothrombin, more than 30 µM. Further, the AC50 in assay [9], in assay [10] and in assay [11] was more than 30 µM each time.
On to `CC(O)(CC(=O)O)CC(=O)O` [MEGLUTOL], for which the AC50 (in [1]; on Acetylcholinesterase; in assay [2]; on Thromboxane A2 receptor [3]; at D(1A) dopamine receptor; in assay [4]) was more than 30 µM throughout. Also, the AC50 is more than 30 µM in assay [5]; 13.8 µM at Thromboxane A2 receptor [6]; more than 30 µM in assay [7]; more than 30 µM in assay [8]; more than 30 µM at Progesterone receptor; more than 30 µM on Prothrombin. Also, the AC50 in assay [9], in [10] and in assay [11] was more than 30 µM throughout.

Usually AC50 stands for the concentration giving half of the maximal activity seen. High values mean weaker potency, low ones greater potency.
